The values below come from patent US10053428B2, “5-aminotetrahydroquinoline-2-carboxylic acids and their use” (BAYER PHARMA AKTIENGESELLSCHAFT, priority 2012, dated 2018).

Test [1] deals with recombinant guanylate cyclase reporter cell line. In words: sGC-activating activity in the CHO reporter cell in vitro. Type of test: cell-based. As to conditions: read-out: MEC (minimum effective concentration). How it is done:
B-2. Action at a Recombinant Guanylate Cyclase Reporter Cell Line
The cellular action of the compounds according to the invention is determined at a recombinant guanylate cyclase reporter cell line, as described in F. Wunder et al., Anal. Biochem. 32, 104-112 (2005).

In test [2] the test system is saphenous artery rings. The test is described as follows: Vasorelaxant effect in vitro (phenylephrine-contracted saphenous artery rings). Conditions: rabbit saphenous artery rings, read-out: IC50 (concentration reducing phenylephrine-induced contraction by 50%). Also on record: species or system Rabbits. How it is done:
B-3. Vasorelaxant Effect In Vitro
Rabbits are anaesthetized and sacrificed by intravenous injection of thiopental sodium (about 50 mg/kg) and exsanguinated. The saphenous artery is removed and divided into rings 3 mm wide. The rings are mounted singly on in each case a pair of triangular hooks open at the end and made of 0.3 mm-thick special wire (Remanium®). Each ring is placed under an initial tension in 5 ml organ baths with Krebs-Henseleit solution which is at 37° C., is gassed with carbogen and has the following composition: NaCl 119 mM; KCl 4.8 mM; CaCl2×2 H2O 1 mM; MgSO4×7H2O 1.4 mM; KH2PO4 1.2 mM; NaHCO3 25 mM; glucose 10 mM; bovine serum albumin 0.001%. The force of contraction is detected with Statham UC2 cells, amplified and digitized via A/D converters (DAS-1802 HC, Keithley Instruments, Munich) and recorded in parallel on chart recorders. Contractions are induced by addition of phenylephrine.
After several (generally 4) control cycles, the substance to be investigated is added in each further run in increasing dosage, and the level of the contraction achieved under the influence of the test substance is compared with the level of the contraction reached in the last preceding run. The concentration necessary to reduce the contraction reached in the preceding control by 50% is calculated from this (IC50). The standard application volume is 5 μl. The proportion of DMSO in the bath solution corresponds to 0.1%.

Test [3] addresses T1, haem-containing recombinant soluble guanylate cyclase (sGC) (Rattus norvegicus, UniProt P20595).
T1 construct: made in house; host or cells: Sf9 insect cells (baculovirus)
T1 sequence (P20595 1-619): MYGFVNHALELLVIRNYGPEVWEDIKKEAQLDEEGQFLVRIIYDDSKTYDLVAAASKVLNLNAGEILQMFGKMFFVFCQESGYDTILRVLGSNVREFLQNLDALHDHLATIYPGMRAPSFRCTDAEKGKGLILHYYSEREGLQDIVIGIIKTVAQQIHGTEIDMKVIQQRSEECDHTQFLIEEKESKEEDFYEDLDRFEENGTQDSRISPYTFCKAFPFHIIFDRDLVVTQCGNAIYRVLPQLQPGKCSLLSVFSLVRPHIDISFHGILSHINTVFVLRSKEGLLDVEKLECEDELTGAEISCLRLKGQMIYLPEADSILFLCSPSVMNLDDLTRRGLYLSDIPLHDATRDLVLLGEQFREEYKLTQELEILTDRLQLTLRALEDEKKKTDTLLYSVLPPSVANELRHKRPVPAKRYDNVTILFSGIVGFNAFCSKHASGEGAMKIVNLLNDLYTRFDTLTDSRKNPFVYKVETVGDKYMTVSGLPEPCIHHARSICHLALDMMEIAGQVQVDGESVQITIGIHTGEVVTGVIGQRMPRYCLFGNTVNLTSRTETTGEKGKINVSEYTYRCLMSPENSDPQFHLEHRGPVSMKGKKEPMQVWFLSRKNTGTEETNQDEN
T1 sequence (P19686 1-690 partner): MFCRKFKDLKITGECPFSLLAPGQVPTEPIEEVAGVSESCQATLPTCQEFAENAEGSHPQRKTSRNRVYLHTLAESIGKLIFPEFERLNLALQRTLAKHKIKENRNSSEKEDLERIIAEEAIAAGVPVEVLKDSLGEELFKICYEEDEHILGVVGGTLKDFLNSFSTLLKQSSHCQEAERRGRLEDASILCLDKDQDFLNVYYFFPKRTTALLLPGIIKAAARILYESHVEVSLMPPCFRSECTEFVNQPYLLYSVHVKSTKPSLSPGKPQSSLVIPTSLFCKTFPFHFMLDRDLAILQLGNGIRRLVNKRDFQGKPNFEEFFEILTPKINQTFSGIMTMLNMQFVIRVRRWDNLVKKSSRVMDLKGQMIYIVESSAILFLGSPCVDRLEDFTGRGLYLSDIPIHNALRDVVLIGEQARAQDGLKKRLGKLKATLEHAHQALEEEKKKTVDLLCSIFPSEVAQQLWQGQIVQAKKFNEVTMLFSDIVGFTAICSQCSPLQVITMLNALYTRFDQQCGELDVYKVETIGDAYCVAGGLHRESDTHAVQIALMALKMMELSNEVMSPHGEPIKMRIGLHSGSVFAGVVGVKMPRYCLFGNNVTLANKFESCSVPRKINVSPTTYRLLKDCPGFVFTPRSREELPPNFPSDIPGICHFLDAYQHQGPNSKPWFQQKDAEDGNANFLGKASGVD
The test is described as follows: Stimulation of recombinant soluble guanylate cyclase (sGC) in vitro, haem-containing enzyme. Type of test: biochemical. How it is done:
(§1) B-1. Stimulation of Recombinant Soluble Guanylate Cyclase (sGC) In Vitro
(§2) Investigations on the stimulation of recombinant soluble guanylate cyclase (sGC) by the compounds according to the invention with and without sodium nitroprusside, and with and without the haem-dependent sGC inhibitor 1H-1,2,4-oxadiazolo[4,3a]quinoxalin-1-one (ODQ), are carried out by the method described in detail in the following reference: M. Hoenicka, E. M. Becker, H. Apeler, T. Sirichoke, H. Schroeder, R. Gerzer and J.-P. Stasch, “Purified soluble guanylyl cyclase expressed in a baculovirus/Sf9 system: Stimulation by YC-1, nitric oxide, and carbon oxide”, J. Mol. Med 77 (1999), 14-23. The haem-free guanylate cyclase is obtained by adding Tween 20 to the sample buffer (0.5% in the final concentration).
The activation of sGC by a test substance is reported as x-fold stimulation of the basal activity. The result for Example 2 is shown in Table 1A, that for Example 23 in Table 1B and that for Example 39 in Table 1C:
[DEA/NO=2-(N,N-diethylamino)diazenolate 2-oxide; ODQ=1H-1,2,4-oxadiazolo-[4,3a]quinoxalin-1-one].

The target in test [4] is T2, haem-free recombinant soluble guanylate cyclase (sGC) (Rattus norvegicus, UniProt P20595).
T2 construct: made in house; host or cells: Sf9 insect cells (baculovirus)
T2 sequence (P20595 1-619): T1 sequence (P20595 1-619)
T2 sequence (P19686 1-690 partner): T1 sequence (P19686 1-690 partner)
In words: Stimulation of recombinant soluble guanylate cyclase (sGC) in vitro, haem-free enzyme. Type of test: biochemical. The procedure: as §1, §2
The activation of sGC by a test substance is reported as x-fold stimulation of the basal activity. The result for Example 2 is shown in Table 1A, that for Example 23 in Table 1B and that for Example 39 in Table 1C: […]

Each structure is given as a SMILES string. Read-outs that look alike come from different tables or passages of the source.

Take `O=C(O)CCCCN(CCc1ccccc1OCc1ccc(CCc2ccccc2)cc1)C1CCCc2nc(C(=O)O)ccc21` (single isomer, unassigned) [Example 14]: in test [1], the minimal effective concentration was 30 nM. Moreover, in test [2], the IC50 was determined as 41.8 nM.
Regarding `O=C(O)CCCCN(CCc1ccccc1OCc1ccc(CCc2ccc(F)cc2)cc1)C1CCCc2nc(C(=O)O)ccc21` (single isomer, unassigned) [Example 15], in test [1], the minimal effective concentration worked out at 0.3 nM. Moreover, the IC50 in test [2] was 0.2 nM.
Taken in the same sequence, the figures for `O=C(O)CCCCN(CCc1ccccc1OCc1ccc(CCc2ccc(F)cc2)cc1)C1CCCc2nc(C(=O)O)ccc21` (single isomer, unassigned) [Example 16] were 3 nM and 15.5 nM.
For `O=C(O)CCCCN(CCc1ccccc1OCc1ccc(-c2ccc(C(F)(F)F)cc2)cc1)C1CCCc2nc(C(=O)O)ccc21` (single isomer, unassigned) [Example 18], the minimal effective concentration in test [1] was 0.3 nM. Further, the IC50 in test [2] (Oryctolagus cuniculus) was found to be 0.4 nM.
Regarding `Cc1ccc2oc(-c3ccc(COc4ccccc4CCN(CCCCC(=O)O)C4CCCc5nc(C(=O)O)ccc54)cc3)nc2c1` (single isomer, unassigned; enantiomer 1) [Example 1, (−)-5-{(4-Carboxybutyl)[2-(2-{[4-(5-methyl-1,3-benzoxazol-2-yl)benzyl]oxy}phenyl)ethyl]-amino}-5,6,7,8-tetrahydroquinoline-2-carboxylic acid (Enantiomer 1)], the minimal effective concentration in test [1] was found to be 160 nM. The IC50 in test [2] came out at 571 nM.
In the same order, the values of `O=C(O)CCCCN(CCc1ccccc1OCc1ccc(CCc2ccccc2)cc1)C1CCCc2nc(C(=O)O)ccc21` (single isomer, unassigned; enantiomer 1) [Example 13, 5-{(4-Carboxybutyl)[2-(2-{[4-(2-phenylethyl)benzyl]oxy}phenyl)ethyl]amino}-5,6,7,8-tetrahydroquinoline-2-carboxylic acid (Enantiomer 1)] are 0.3 nM and 0.1 nM.
On to `CC(C)(C)c1ccc(COc2ccccc2CCN(CCCCC(=O)O)C2CCCc3nc(C(=O)O)ccc32)cc1` (single isomer, unassigned) [Example 4], for which the minimal effective concentration in test [1] came out at 0.5 nM. For the same compound, in test [2] (Oryctolagus cuniculus), the IC50 came out at 0.3 nM.
For `O=C(O)c1ccc(CCN(CCc2cc(F)ccc2OCc2ccc(-c3nc4cc(Cl)ccc4o3)cc2)C2CCCc3nc(C(=O)O)ccc32)cc1` (single isomer, unassigned; enantiomer 2) [Example 39, 5-{[2-(4-Carboxyphenyl)ethyl][2-(2-{[4-(5-chloro-1,3-benzoxazol-2-yl)benzyl]oxy}-5-fluorophenyl)ethyl]amino}-5,6,7,8-tetrahydroquinoline-2-carboxylic acid (Enantiomer 2)], the “Effect of combination with the NO donor DEA/NO on sGC stimulation” value in test [3] (combination with DEA/NO) is on record as “no synergistic effect”. Also, the “Stimulation (x-fold), haem-containing sGC, basal” value is reported as 17.4 ± 2.4 x-fold in test [3] (test compound 0.01 μM); 73.0 ± 7.7 x-fold in test [3] (test compound 0.1 μM); 96.6 ± 8.5 x-fold in test [3] (test compound 1.0 μM); 108.6 ± 9.0 x-fold in test [3] (test compound 10 μM); 143.6 ± 13.4 x-fold in test [3] (test compound 100 μM). For the same compound, the “Stimulation (x-fold), haem-containing sGC, +0.1 μM DEA/NO” value turned out to be 46.5 ± 2.8 x-fold in test [3] (test compound 0.01 μM); 115.5 ± 11.9 x-fold in test [3] (test compound 0.1 μM); 145.2 ± 15.9 x-fold in test [3] (test compound 1.0 μM); 159.4 ± 17.9 x-fold in test [3] (test compound 10 μM); 192.1 ± 24.6 x-fold in test [3] (test compound 100 μM). In addition, the “Stimulation (x-fold), haem-containing sGC, +10 μM ODQ” value in test [3] (test compound 0.01 μM) came to 42.0 ± 4.9 x-fold; in test [3] (test compound 0.1 μM), 145.6 ± 14.7 x-fold; in test [3] (test compound 1.0 μM), 182.5 ± 17.6 x-fold; in test [3] (test compound 10 μM) it was 188.7 ± 16.5 x-fold; in test [3] (test compound 100 μM), 208.5 ± 19.0 x-fold. The minimal effective concentration in test [1] is recorded as 1 nM. The “Stimulation (x-fold), haem-free sGC, basal” value in test [4] (test compound 0.01 μM) is reported as 39.0 ± 5.8 x-fold; in test [4] (test compound 0.1 μM), 176.9 ± 29.9 x-fold; in test [4] (test compound 1.0 μM), 284.9 ± 54.5 x-fold; in test [4] (test compound 10 μM) it was 311.5 ± 55.9 x-fold; in test [4] (test compound 100 μM), 309.4 ± 54.8 x-fold.
